Reference: patent publication US8513276B2, “Imidazo[1,2-a]pyridine compounds for use in treating cancer” (Astex Therapeutics Limited, priority 2006, dated 2013)
Where a name gives a salt, the structure may show the parent alone. Read-outs that look alike come from different tables or passages of the source.

Columns and labels:
FGFR3 = target: T1, FGFR3 (Homo sapiens, UniProt P22607); experiment: FGFR3 in vitro kinase inhibitory activity assay (TRF); format: biochemical
T1 construct: Enzymes (from Upstate) were prepared at 2× final concentration in 1× kinase assay buffer; purchased Upstate
T1 sequence (P22607 23-806): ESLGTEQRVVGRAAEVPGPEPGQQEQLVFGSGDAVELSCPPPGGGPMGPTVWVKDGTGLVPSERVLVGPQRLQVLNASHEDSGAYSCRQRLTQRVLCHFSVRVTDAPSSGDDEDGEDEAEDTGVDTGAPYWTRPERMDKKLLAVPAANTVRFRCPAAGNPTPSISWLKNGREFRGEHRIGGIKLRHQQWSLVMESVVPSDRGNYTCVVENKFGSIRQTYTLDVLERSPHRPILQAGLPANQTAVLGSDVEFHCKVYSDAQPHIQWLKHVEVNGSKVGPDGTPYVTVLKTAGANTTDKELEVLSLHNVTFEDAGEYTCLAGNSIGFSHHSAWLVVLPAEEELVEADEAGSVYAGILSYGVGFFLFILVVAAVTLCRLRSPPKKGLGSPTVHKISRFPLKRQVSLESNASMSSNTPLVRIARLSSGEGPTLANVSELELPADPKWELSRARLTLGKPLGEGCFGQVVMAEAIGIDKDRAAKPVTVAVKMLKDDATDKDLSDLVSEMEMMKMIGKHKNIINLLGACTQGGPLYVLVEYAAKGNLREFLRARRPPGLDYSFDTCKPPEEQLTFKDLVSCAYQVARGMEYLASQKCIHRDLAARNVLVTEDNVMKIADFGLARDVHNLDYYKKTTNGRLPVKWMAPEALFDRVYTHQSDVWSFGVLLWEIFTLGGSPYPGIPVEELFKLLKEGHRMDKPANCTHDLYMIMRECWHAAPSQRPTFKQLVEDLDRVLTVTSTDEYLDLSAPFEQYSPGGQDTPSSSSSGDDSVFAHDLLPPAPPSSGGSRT
Protocol: Enzymes (from Upstate) were prepared at 2× final concentration in 1× kinase assay buffer (as described below). Enzymes were then incubated with test compounds, biotinylated Flt3 substrate (biotin—DNEYFYV) (Cell Signalling Technology Inc.) and ATP. The reaction was allowed to proceed for 3 hours (FGFR3) or 2.5 hrs (PDGFR-beta) at room temperature on a plate shaker at 900 rpm before being stopped with 20 μl of 35 mM EDTA, pH 8 (FGFR3) or 55 mM EDTA, pH 8 (PDGFR-beta). Twenty μl of 5× detection mix (50 mM HEPES pH 7.5, 0.1% BSA, 2 nM Eu-anti-pY (PY20) (PerkinElmer) 15 nM SA-XL665 (Cisbio) for FGFR3 and 50 mM HEPES, pH 7.5, 0.5 M KF, 0.1% BSA, 11.34 nM Eu-anti-pY (PT66) (PerkinEimer), 94 nM SA-XL665 (Cisbio) for PDGFR-beta) was then added to each well and the plate sealed and incubated at room temperature for one hour on a plate shaker at 900 rpm. The plate was then read on a Packard Fusion plate reader in TRF mode.
Kinase Assay buffers were:
A: 50 mM HEPES pH 7.5, 6 mM MnCl2, 1 mM DTT, 0.1% TritonX-100

LP-1 cell line = experiment: Cell-based pERK ELISA in LP-1 multiple myeloma cells; settings: Homo sapiens
Protocol: LP-1 or JIM-1 multiple myeloma cells were seeded in 96 well plates at 1×10^6 cells/ml in 200 μl per well in serum free media. HUVEC cells were seeded at 2.5×10^5 cells/ml and allowed to recover for 24 h prior to transfer to serum free media. Cells were incubated for 16 h at 37° C. prior to the addition of a test compound for 30 minutes. Test compounds were administered at a 0.1% final DMSO concentration. Following this 30 minute incubation a FGF-1/Heparin (FGF-1 at 100 ng/ml final and Heparin at 100 ug/ml) mixture or VEGF^165 ([…]) was added to each of the wells for a further 5 minutes. The media was removed and 50 ul ERK ELISA lysis buffer (R and D Systems DuoSet ELISA for pERK and Total ERK #DYC-1940E, DYC-1018E) added. ELISA plates and standards were prepared according to the standard DuoSet protocols and the relative amounts of pERK to total ERK in each sample calculated according to the standard curve.
In particular, compounds of the invention were tested against the LP-1 cell line (DSMZ no.: ACC 41) derived from human multiple myeloma.

[1] = given as a bound, read-out: IC50 in the FGFR3 assay
[2] = in vitro kinase assay, 8 μM ATP, read-out: FGFR3 IC50
[3] = LP-1 cell line, given as a bound, read-out: IC50 in LP-1 pERK ELISA
[4] = LP-1 cells, FGF-1/heparin stimulation, pERK relative to total ERK, read-out: LP-1 pERK ELISA

| IC50 (FGFR3; [1]) [nM] | IC50 (FGFR3; [2]) [nM] | IC50 (LP-1 cell line; [3]) [nM] | IC50 (LP-1 cell line; [4]) [nM] | SMILES |
| --- | --- | --- | --- | --- |
| < 1000 | 6.03 | < 1000 | 40 | Nc1ccc(-c2cnc3c(-c4cccc(Nc5nncs5)c4)cnn3c2)cn1 [Example 11, 5-{3-[3-([1,3,4]Thiadiazol-2-ylamino)-phenyl]-pyrazolo[1,5-a]pyrimidin-6-yl}-pyridin-2-ylamine hydrochloride salt] |
| < 1000 | – | < 1000 | – | Fc1ccc(-c2ccc3c(-c4cccc(Nc5nncs5)c4)cnn3c2)cc1 [Example 12, {3-[6-(4-Fluoro-phenyl)-pyrazolo[1,5-a]pyridin-3-yl]-phenyl}-[1,3,4]thiadiazol-2-yl-amine] |
| < 1000 | – | < 1000 | – | O=C(O)Cc1cccc(-c2ccn3c(-c4cccc(NCc5ccccc5)c4)cnc3c2)c1 [Example 13, {3-[3-(3-Benzylamino-phenyl)-imidazo[1,2-a]pyridin-7-yl]-phenyl}-acetic acid] |
| < 1000 | 16 | < 1000 | 8.5 | Cn1cc(-c2ccn3c(-c4cccc(Nc5nncs5)c4)cnc3c2)cn1 [Example 14, {3-[7-(1-Methyl-1H-pyrazol-4-yl)-imidazo[1,2-a]pyridin-3-yl]-phenyl}-[1,3,4]thiadiazol-2-yl-amine] |
| < 1000 | – | < 1000 | – | Cn1cc(-c2cnc3c(-c4cccc(Nc5nncs5)c4)cnn3c2)cn1 [Example 16, {3-[6-(1-Methyl-1H-pyrazol-4-yl)-pyrazolo[1,5-a]pyrimidin-3-yl]-phenyl}-[1,3,4]thiadiazol-2-yl-amine] |
| < 1000 | – | < 1000 | – | c1cc(Nc2nncs2)cc(-c2cnn3cc(-c4ccncc4)cnc23)c1 [Example 17, [3-(6-Pyridin-4-yl-pyrazolo[1,5-a]pyrimidin-3-yl)-phenyl]-[1,3,4]thiadiazol-2-yl-amine] |
| < 1000 | – | < 1000 | – | c1cc(Nc2nncs2)cc(-c2cnn3cc(-c4cnccn4)cnc23)c1 [Example 18, [3-(6-Pyrazin-2-yl-pyrazolo[1,5-a]pyrimidin-3-yl)-phenyl]-[1,3,4]thiadiazol-2-yl-amine] |
| < 1000 | – | < 1000 | – | c1cc(Nc2nncs2)cc(-c2cnc3cc(-c4ccc5c(c4)OCO5)ccn23)c1 [Example 20, [3-(7-Benzo[1,3]dioxol-5-yl-imidazo[1,2-a]pyridin-3-yl)-phenyl]-[1,3,4]thiadiazol-2-yl-amine Formate] |
| < 1000 | – | < 1000 | – | c1cc(Nc2nncs2)cc(-c2cnc3cc(N4CCCCC4)ccn23)c1 [Example 24, [3-(7-Piperidin-1-yl-imidazo[1,2-a]pyridin-3-yl)-phenyl]-[1,3,4]thiadiazol-2-yl-amine] |
| < 1000 | – | < 1000 | – | Fc1ccc(-c2cnc3c(-c4cncc(Nc5nncs5)c4)cnn3c2)cc1 [Example 25, {5-[6-(4-Fluoro-phenyl)-pyrazolo[1,5-a]pyrimidin-3-yl]-pyridin-3-yl}-[1,3,4]thiadiazol-2-yl-amine] |
| < 1000 | – | < 1000 | – | CNC(=O)Cc1cccc(-c2ccn3c(-c4cccc(Nc5nncs5)c4)cnc3c2)c1 [Example 26, N-Methyl-2-(3-{3-[3-([1,3,4]thiadiazol-2-ylamino)-phenyl]-imidazo[1,2-a]pyridin-7-yl}-phenyl)-acetamide Hydrochloride] |
| < 1000 | – | < 1000 | – | O=C1CN(Cc2cccc(-c3ccn4c(-c5cccc(Nc6nncs6)c5)cnc4c3)c2)CCN1 [Example 28, 4-(3-{3-[3-([1,3,4]Thiadiazol-2-ylamino)-phenyl]-imidazo[1,2-a]pyridin-7-yl}-benzyl)-piperazin-2-one Formate] |
| < 1000 | – | < 1000 | – | CNC(=O)c1cccc(-c2ccn3c(-c4cccc(Nc5nncs5)c4)cnc3c2)c1 [Example 30, N-Methyl-3-{3-[3-([1,3,4]thiadiazol-2-ylamino)-phenyl]-imidazo[1,2-a]pyridin-7-yl}-benzamide Hydrochloride] |
| < 1000 | – | < 1000 | – | Nc1cccc(-c2ccn3c(-c4cccc(Nc5nncs5)c4)cnc3c2)c1 [Example 32, {3-[7-(3-Amino-phenyl)-imidazo[1,2-a]pyridin-3-yl]-phenyl}-[1,3,4]thiadiazol-2-yl-amine Hydrochloride] |
| < 1000 | 33.9 | < 1000 | 140 | Cn1nnc(-c2ccn3c(-c4cccc(Nc5nncs5)c4)cnc3c2)n1 [Example 43, {3-[7-(2-Methyl-2H-tetrazol-5-yl)-imidazo[1,2-a]pyridin-3-yl]phenyl}-[1,3,4]thiadiazol-2-yl-amine] |
| < 1000 | – | < 1000 | – | Clc1ccn2c(-c3cccc(Nc4nncs4)c3)cnc2c1 [the starting material of Procedure A4c, [3-(7-Chloro-imidazo[1,2-a]pyridin-3-yl)-phenyl]-[1,3,4]thiadiazol-2-yl-amine] |
